Here are results for one compound from EP0114577A1, “New pharmaceutical composition” (MAGIS FARMACEUTICI S.p.A., priority 1983, dated 1984).

A short description of this data set: Serum levels of radioactivity after administration of 14C-CDPC (liposomal suspension vs aqueous solution) to rats. The conditions noted are these: rat, in vivo, 200 mg/kg. From the text: Surprising results which are obtained orally administering carried-by-liposomes CDPC instead of utilizing hitherto known pharmaceutical compositions for oral administration are confirmed by data obtained by carrying out tests hereinbelow described. During the tests as pharmaceutical composition containing carried-by-liposomes CDPC, CDPC carried by means of a liposome having purified phosphatidylcholine from soybean as hydrophobic phase was utilized; said pharmaceutical composition will be called hereinafter Lip. CDPC for the sake of brevity. Moreover, during the hereinbelow describ ed tests, a marked CDPC was utilized having an atom of ^14C introduced into the methyl group of the cholinic side of the molecule. The radioactivity resulted to be about 0.1 µ Curie/mg pure CDPC.
The suspension of Lip. CDPC containing ^14C-CDPC, which was obtained as described in Example No. 1, and a ' reference aqueous solution of ^14C-CDPC were administered by gavage to rats of average weight of 200 g at the doses of 200 mg/Kg (referred to pure CDPC).
Blood abstractions were carried out at various intervals of time and, 24 hours after the start of test, the animals were sacrificed. Amounts of absorbed active ingredient were calculated from radioactivity measures on serum; said amounts, as reported in following Tables (1 - 2), were higher on the average in tests carried out employing Lip. CDPC in comparison with controls with pure CDPC in aqueous solution. It is apparent from the analysis of Tables that, in the described experimental conditions, there is a valuable absorption of CDPC after oral administration. The amount of said absorption and pertinent hematic concentrations are remarkably higher when Lip. CDPC, which is object of the present invention, is used: for example at the 6th hour the serum concentration of CDPC for Lip. CDPC was much higher than concentration found for CDPC administered in aqueous solution.

As for `C[N+](C)(C)CCOP(=O)(O)OP(=O)([O-])OC[C@H]1O[C@@H](n2ccc(N)nc2=O)[C@H](O)[C@@H]1O` [CDPC, cytidine diphosphate choline ester], the Serum concentration is, setting by setting: (0 min) 0 CPM x 10^-3; (60 min) 0.3 CPM x 10^-3; (120 min) 1 CPM x 10^-3; (300 min) 2.6 CPM x 10^-3; (600 min) 4 CPM x 10^-3; (900 min) 4 CPM x 10^-3.
